Test results as given in patent US9962388B2, “Pyrrolopyrimidine compounds used as TLR7 agonist” (priority 2014, dated 2018).
Where two headings read alike, the source gives them in different places.

Legend:
[1] = biological target: Toll-like receptor 7 (Homo sapiens (Human), UniProt Q9NYK1); assay: Toll-like receptor 7 in vitro receptor binding activity screen (HEK-blue hTLR7 cell, alkaline phosphatase/Quanti-Blue readout); assay type: cell-based; details: for EC50: HEK-blue hTLR7 cell, read-out: TLR7 EC50
Chain of Toll-like receptor 7 (Q9NYK1 27-1049): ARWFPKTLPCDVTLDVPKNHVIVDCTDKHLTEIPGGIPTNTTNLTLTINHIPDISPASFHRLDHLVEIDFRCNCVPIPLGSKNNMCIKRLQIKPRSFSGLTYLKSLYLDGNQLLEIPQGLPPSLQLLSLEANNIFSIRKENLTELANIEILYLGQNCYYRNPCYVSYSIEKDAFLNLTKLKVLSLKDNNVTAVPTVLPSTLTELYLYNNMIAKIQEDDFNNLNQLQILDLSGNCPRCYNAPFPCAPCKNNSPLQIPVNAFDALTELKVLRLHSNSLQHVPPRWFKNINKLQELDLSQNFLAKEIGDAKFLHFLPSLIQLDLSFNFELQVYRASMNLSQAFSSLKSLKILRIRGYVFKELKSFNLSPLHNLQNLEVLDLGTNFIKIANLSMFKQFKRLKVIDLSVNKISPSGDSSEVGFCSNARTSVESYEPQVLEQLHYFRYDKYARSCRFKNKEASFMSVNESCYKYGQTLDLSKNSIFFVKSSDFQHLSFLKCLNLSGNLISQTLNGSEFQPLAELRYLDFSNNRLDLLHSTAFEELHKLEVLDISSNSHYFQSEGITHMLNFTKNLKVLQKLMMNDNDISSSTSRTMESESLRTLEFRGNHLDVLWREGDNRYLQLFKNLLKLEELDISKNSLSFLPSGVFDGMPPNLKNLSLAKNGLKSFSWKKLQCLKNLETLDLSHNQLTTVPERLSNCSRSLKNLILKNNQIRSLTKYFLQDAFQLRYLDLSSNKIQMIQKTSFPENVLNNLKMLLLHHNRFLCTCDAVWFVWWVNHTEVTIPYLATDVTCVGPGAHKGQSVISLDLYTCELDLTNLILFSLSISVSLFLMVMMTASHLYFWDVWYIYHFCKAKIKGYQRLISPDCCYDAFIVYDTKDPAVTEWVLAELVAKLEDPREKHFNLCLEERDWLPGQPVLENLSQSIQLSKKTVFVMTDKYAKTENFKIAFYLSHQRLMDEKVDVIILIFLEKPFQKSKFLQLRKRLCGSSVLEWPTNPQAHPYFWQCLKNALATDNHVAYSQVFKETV
Procedure: (§1) Toll-Like Receptor 7 and Toll-Like Receptor 8 In Vitro Receptor Binding Activity Screen
(§2) HEK-blue hTLR7 cell and HEK-blue hTLR8 cell (available from InvivoGen)
(§3) 1. Preparation of 96-well compound plate:
(§4) The compounds were gradient diluted with DMSO in 3-fold using liquid work station POD starting at a concentration of 10 mmol/L and 10 points were diluted (2nd column to 11th column, and each point was duplicated). At 12th column, 1 μL of 5 mg/mL positive compound R848 was added as positive control; and at 1st column, 1 μL of DMSO was added as negative control. Each well contained 1 μL of DMSO.
(§5) 2. The cells in culture flask were collected and the cell density was diluted to 250,000 cells/mL.
(§6) 3. 200 μL (50,000 cells/well) of cell suspension was added into prepared compound plate and the final concentration of DMSO in each well was 0.5%.
(§7) 4. The culture plates containing cells and the compounds were incubated in CO2 incubator for 24 h at 37° C., 5% CO2.
(§8) 5. After 24 h incubation, 20 μL of supernatant was removed from each well to a 96-well transparent assay plate. To each well of the assay plate was added 180 μL of Quanti-Blue reagent and the plate was incubated in an incubator at 37° C., 5% CO2 for 1 h.
(§9) 6. After 1 h, the content of alkaline phosphatase in 20 μL of supernatant was determined using Microplate Reader OD650.
(§10) 7. EC50 of each compound was obtained with Prism software.

[2] = tested on: hepatitis b virus; assay: In vivo pharmacodynamics in HDI (hydrodynamic injection) mouse model infected with hepatitis b virus; details: 20 mg/kg intragastric, once a day, day 1 to day 7; FIGS. 1 and 2
Procedure: In Vivo Pharmacodynamics in HDI (Hydrodynamic Injection) Mouse Model Infected with Hepatitis b Virus
Experimental Design and Procedures:
Route: intragastric administration
Administration time: day 1 to day 7, 7 days in total
At day 1, 3, 5 and 7, plasma samples were collected 4 h after administration; and at day 7, liver sample was collected 4 h after administration.

[3] = tested on: duck hepatitis b virus; assay: In vivo pharmacodynamics in duckling model infected with hepatitis B virus; design: species or system Beijing ducks; details: for rebound of HBV-DNA replication: 20 mg/kg one administration every third day, 3 days after ceasing administration
Procedure: In Vivo Pharmacodynamics in Duckling Model Infected with Hepatitis B Virus
Experimental design and procedures: Beijing ducks of 1 day old were intravenously administered duck hepatitis b virus positive duck serum. After 7 days, the animals were administered according to grouping, 6 ducks in each group. Control group: normal saline. […] The samples were administered intragastricly: 20 mg/kg groups were administered once every third day (one administration every 3 days) and 5 mg/kg groups were administered once every day for 16 days. […] For control group infected with duck hepatitis b virus, solvent was used instead of drug. 7 days after infection, the blood was collected before administration (TO),8 days after administration (T8),16 days after administration (T16) and 3 day after ceasing administration (P3), and the duck serum was separated and frozen for storage. […] Duck serum DNA (DHBV-DNA) determination: different duck sera in a batch were determined for duck blood DHBV-DNA level with real time fluorescent quantitative PCR. Statistics analysis: paired and grouped analysis was used to calculate the significance of inhibition of drug on duck serum DHBV-DNA for assessment.

[4] = biological target: Toll-like receptor 8 (Homo sapiens (Human), UniProt Q9NR97); assay: Toll-like receptor 8 in vitro receptor binding activity screen (HEK-blue hTLR8 cell, alkaline phosphatase/Quanti-Blue readout); assay type: cell-based; details: for EC50: HEK-blue hTLR8 cell, head-to-head test, read-out: TLR8 EC50
Chain of Toll-like receptor 8 (Q9NR97 27-1041): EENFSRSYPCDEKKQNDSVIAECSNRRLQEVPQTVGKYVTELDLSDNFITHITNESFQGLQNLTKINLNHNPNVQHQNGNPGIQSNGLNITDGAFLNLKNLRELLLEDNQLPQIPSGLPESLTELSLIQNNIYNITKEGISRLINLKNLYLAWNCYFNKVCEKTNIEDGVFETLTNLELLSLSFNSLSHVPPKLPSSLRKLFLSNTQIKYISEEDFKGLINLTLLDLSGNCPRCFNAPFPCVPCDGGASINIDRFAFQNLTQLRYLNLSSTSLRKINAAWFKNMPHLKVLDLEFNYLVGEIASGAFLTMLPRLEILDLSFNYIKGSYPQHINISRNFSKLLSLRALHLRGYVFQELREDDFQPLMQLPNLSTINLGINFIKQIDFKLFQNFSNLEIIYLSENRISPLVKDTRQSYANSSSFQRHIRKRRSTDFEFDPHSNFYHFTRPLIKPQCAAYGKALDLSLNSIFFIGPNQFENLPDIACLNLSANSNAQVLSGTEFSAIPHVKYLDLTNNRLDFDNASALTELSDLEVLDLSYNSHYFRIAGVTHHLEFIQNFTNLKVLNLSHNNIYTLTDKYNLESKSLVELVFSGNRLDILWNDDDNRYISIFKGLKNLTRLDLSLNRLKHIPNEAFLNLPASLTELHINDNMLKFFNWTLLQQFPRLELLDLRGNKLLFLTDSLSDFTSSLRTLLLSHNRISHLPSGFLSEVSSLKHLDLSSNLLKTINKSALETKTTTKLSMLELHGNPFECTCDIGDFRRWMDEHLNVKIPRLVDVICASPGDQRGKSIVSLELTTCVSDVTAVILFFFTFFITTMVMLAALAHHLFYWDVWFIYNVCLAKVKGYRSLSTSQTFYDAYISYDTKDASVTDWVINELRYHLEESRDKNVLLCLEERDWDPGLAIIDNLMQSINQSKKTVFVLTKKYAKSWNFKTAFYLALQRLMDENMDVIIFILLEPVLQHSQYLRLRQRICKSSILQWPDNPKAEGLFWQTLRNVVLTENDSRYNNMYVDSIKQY
Procedure: as §1, §2, §3, §4, §5, §6, §7, §8, §9, §10

[5] = in vivo; details: rat; for AUC(0-inf) / AUC(0-t) / Cmax / Vd / clearance / half-life / Mean plasma drug concentration: male, SD
Procedure: 12 male SD rats were divided into 4 groups with 3 SD rats in each group. […] […] Each rat with oral administration was collected for whole blood samples which were prepared into plasma 15, 30 min and 1, 2, 4, 8, 24 h continuously after administration.

[6] = tested on: human peripheral blood mononuclear cells (PBMC); assay: Peripheral blood mononuclear cell assay (cytokine induction, CBA); assay type: cell-based; details: for minimal effective concentration: Homo sapiens, read-out: INF-α MEC; for minimal effective concentration / TNF-α MEC: 24 h, human PBMC
Procedure: Peripheral Blood Mononuclear Cell Assay The purpose of this example is to determine the expression level of cytokines 24 h after stimulation to human peripheral blood mononuclear cells (PBMC) with the compounds. The cell supernatant was assayed without dilution and the levels of IFN-α and TNF-α were directly determined. The compound was firstly formulated into 20 mM DMSO stock solution and was gradient diluted with cell medium in 10-fold with the total number of 11 diluting points. The compounds in 9 diluting points (the highest concentration was 200 μmol/L) were added into 96-well plate with 50 μL in each well. Fresh human peripheral blood mononuclear cells were inoculated, with 150 μL in each well containing 450,000 cells. The cell culture plate was incubated in an incubator at 37° C., 5% CO2 for 24 h. After incubation, the culture plate was centrifuged at 1200 rpm for 5 min and the supernatant was collected and stored at −20° C. for determination. The determination of cytokine was performed using Cytometric Bead Array (CBA) of BD-Pharmingen on flow cytometer. Using the above determining method, the lowest drug concentration stimulating cytokine level which is over 3 times greater than the lowest detectable limit was designated as the MEC (Minimal Effective Concentration) value in the cytokine stimulating test.

[7] = 5 mg/kg intragastric once every day for 16 days, P3
[8] = 5 mg/kg intragastric once every day for 16 days, T8
[9] = 20 mg/kg intragastric once every third day, P3 (3 days after ceasing administration)
[10] = 20 mg/kg intragastric once every third day, T8 (8 days after administration)
[11] = 20 mg/kg intragastric once every third day, T16 (16 days after administration)
[12] = PBMC, Minimal Effective Concentration

Compound: CCCCOc1nc(N)c2[nH]cc(Cc3ccc(CN4CCCC4)cc3)c2n1 [Example 21, 2-butoxy-7-(4-(pyrrolidine-1-ylmethyl)benzyl)-5H-pyrrolo[3,2-d]pyrimidine-4-amine]
- EC50 ([1]; 24 h): 100 to 1000 nM
- EC50 ([1]; head-to-head test): 160 nM
- in vitro receptor binding activity to Toll-like receptor 7 compared with GS-9620 ([1]; versus control GS-9620): higher
- efficacy by HBV copy numbers in plasma and liver compared with GS-9620 [2]: better efficacy
- Duck serum HBV-DNA inhibition % [3, 7]: 95.55 ± 3.56 %
- Duck serum HBV-DNA inhibition % [3, 8]: 99.96 ± 0.06 %
- inhibition rate compared with GS-9620 ([3]; 5 mg/kg, one administration everyday): significant advantage
- Duck serum HBV-DNA inhibition % [3, 9]: 92.81 ± 13.79 %
- Duck serum HBV-DNA inhibition % [3, 10]: 100.0 ± 0 %
- Duck serum HBV-DNA inhibition % [3, 11]: 98.80 ± 1.84 %
- rebound of HBV-DNA replication [3]: no rebound
- inhibition rate compared with GS-9620 ([3]; 20 mg/kg, one administration every third day): roughly comparable
- EC50 [4]: 11600 nM
- in vitro receptor binding activity to Toll-like receptor 8 compared with GS-9620 ([4]; versus control GS-9620): lower
- AUC(0-inf) ([5]; iv, 1 mg/kg): 0.676 µM·h
- AUC(0-t) ([5]; iv, 1 mg/kg): 0.641 µM·h
- Cmax ([5]; iv, 1 mg/kg): 478 nM
- Vd ([5]; iv, 1 mg/kg): 29 L/kg
- clearance ([5]; iv, 1 mg/kg): 65.8 mL/min/kg
- half-life ([5]; iv, 1 mg/kg): 5.76 h
- Mean plasma drug concentration ([5]; iv, 1 mg/kg, 0.083 h): 318 nM
- Mean plasma drug concentration ([5]; iv, 1 mg/kg, 0.25 h): 141 nM
- Mean plasma drug concentration ([5]; iv, 1 mg/kg, 0.5 h): 109 nM
- Mean plasma drug concentration ([5]; iv, 1 mg/kg, 1 h): 74.3 nM
- Mean plasma drug concentration ([5]; iv, 1 mg/kg, 2 h): 48.9 nM
- Mean plasma drug concentration ([5]; iv, 1 mg/kg, 4 h): 37.7 nM
- Mean plasma drug concentration ([5]; iv, 1 mg/kg, 8 h): 31.6 nM
- Mean plasma drug concentration ([5]; iv, 1 mg/kg, 24 h): 3.94 nM
- AUC(0-inf) ([5]; po, 5 mg/kg): 0.749 µM·h
- AUC(0-t) ([5]; po, 5 mg/kg): 0.699 µM·h
- Cmax ([5]; po, 5 mg/kg): 186 nM
- half-life ([5]; po, 5 mg/kg): 6.24 h
- Mean plasma drug concentration ([5]; po, 5 mg/kg, 0.25 h): 69.4 nM
- Mean plasma drug concentration ([5]; po, 5 mg/kg, 0.5 h): 41.6 nM
- Mean plasma drug concentration ([5]; po, 5 mg/kg, 1 h): 36.4 nM
- Mean plasma drug concentration ([5]; po, 5 mg/kg, 2 h): 186 nM
- Mean plasma drug concentration ([5]; po, 5 mg/kg, 4 h): 51.2 nM
- Mean plasma drug concentration ([5]; po, 5 mg/kg, 8 h): 23.9 nM
- Mean plasma drug concentration ([5]; po, 5 mg/kg, 24 h): 5.25 nM
- exposure compared with GS-9620 [5]: higher exposure
- half-life compared with GS-9620 [5]: longer half-life
- minimal effective concentration [6, 12]: 1e-05 to 0.001 µM
- minimal effective concentration ([6]; PBMC, head-to-head test): 0.005 µM
- TNF-α inducing activity compared with GS-9620 ([6]; PBMC, versus control GS-9620): comparable
- in vitro IFN-α inducing activity compared with GS-9620 ([6]; PBMC, versus control GS-9620): higher
- TNF-α MEC ([6]; head-to-head test): 500 nM

Compound: CCCCOc1nc(N)c2[nH]cc(Cc3ccc4c(c3)CN(C(C)C)CC4)c2n1 [Example 31, 2-butoxy-7-((2-isopropyl-1,2,3,4-tetrahydroisoquinoline-7-yl)methyl)-5H-pyrrolo[3,2-d]pyrimidine-4-amine]
- EC50 ([1]; 24 h): 100 to 1000 nM
- minimal effective concentration [6, 12]: 0.001 to 0.01 µM

Compound: CCCCOc1nc(N)c2[nH]c(C#N)c(Cc3ccc(CN4CCCC4)cc3)c2n1 [Example 42, 4-amino-2-butoxy-7-(4-(pyrrolidine-1-ylmethyl)benzyl)-5H-pyrrolo[3,2-d]pyrimidine-6-carbonitrile]
- EC50 ([1]; 24 h): 1 to 100 nM
- minimal effective concentration [6, 12]: 1e-05 to 0.001 µM

Compound: CCCCOc1nc(N)c2c(n1)N(Cc1cccc(CN3CCCC3)c1)CC(=O)N2 [GS-9620, reference compound]
- EC50 ([1]; head-to-head test): 517 nM
- Duck serum HBV-DNA inhibition % [3, 7]: 70.60 ± 47.66%
- Duck serum HBV-DNA inhibition % [3, 8]: 98.66 ± 2.75 %
- Duck serum HBV-DNA inhibition % ([3]; 5 mg/kg intragastric once every day for 16 days, T16): 78.02 ± 51.69%
- Duck serum HBV-DNA inhibition % [3, 9]: −132.97 ± 352.35%
- Duck serum HBV-DNA inhibition % [3, 10]: 99.13 ± 1.83 %
- Duck serum HBV-DNA inhibition % [3, 11]: 98.26 ± 1.50 %
- rebound of HBV-DNA replication [3]: rebound of HBV-DNA replication
- EC50 [4]: 7870 nM
- half-life ([5]; 1 mg/kg, IV 1 mpk, read-out: T½ (converted)): 2.57 h
- half-life ([5]; 5 mg/kg, PO 5 mpk, read-out: T½ (converted)): 2.24 h
- AUC(0-inf) ([5]; iv, 1 mg/kg): 0.201 µM·h
- AUC(0-t) ([5]; iv, 1 mg/kg): 0.185 µM·h
- Cmax ([5]; iv, 1 mg/kg): 220 nM
- Vd ([5]; iv, 1 mg/kg): 32.8 L/kg
- clearance ([5]; iv, 1 mg/kg): 205 mL/min/kg
- Mean plasma drug concentration ([5]; iv, 1 mg/kg, 0.083 h): 170 nM
- Mean plasma drug concentration ([5]; iv, 1 mg/kg, 0.25 h): 102 nM
- Mean plasma drug concentration ([5]; iv, 1 mg/kg, 0.5 h): 65.4 nM
- Mean plasma drug concentration ([5]; iv, 1 mg/kg, 1 h): 48.1 nM
- Mean plasma drug concentration ([5]; iv, 1 mg/kg, 2 h): 21.6 nM
- Mean plasma drug concentration ([5]; iv, 1 mg/kg, 4 h): 13 nM
- Mean plasma drug concentration ([5]; iv, 1 mg/kg, 8 h): 4.17 nM
- AUC(0-inf) ([5]; po, 5 mg/kg): 0.359 µM·h
- AUC(0-t) ([5]; po, 5 mg/kg): 0.316 µM·h
- Cmax ([5]; po, 5 mg/kg): 164 nM
- Mean plasma drug concentration ([5]; po, 5 mg/kg, 0.25 h): 56.3 nM
- Mean plasma drug concentration ([5]; po, 5 mg/kg, 0.5 h): 33.2 nM
- Mean plasma drug concentration ([5]; po, 5 mg/kg, 1 h): 83.4 nM
- Mean plasma drug concentration ([5]; po, 5 mg/kg, 2 h): 136 nM
- Mean plasma drug concentration ([5]; po, 5 mg/kg, 4 h): 16.7 nM
- Mean plasma drug concentration ([5]; po, 5 mg/kg, 8 h): 9.49 nM
- minimal effective concentration ([6]; PBMC, head-to-head test): 0.05 µM
- TNF-α MEC ([6]; head-to-head test): 500 nM
